The source of these data is ChEMBL document CHEMBL1158885, “A new sesquiterpenoid quinone and other related compounds from the Okinawan marine sponge Dactylospongia elegans” (J Nat Prod, 2003).

The test system of the test is HeLa. Description: Cytotoxicity against human HeLa cells. In kind it is functional, cell-based.

One may read the IC50 as the midpoint of a concentration-inhibition curve. For `C=C1CCC[C@H]2[C@]3(C)OC4=C(C[C@]3(C)CC[C@]12C)C(=O)C(OC)=CC4=O` [NEODACTYLOQUINONE], half-maximal inhibition (IC50) required 86 µM. In other words, the double-digit micromolar range.
